Measurements taken from patent US7605175B2, “Inhibitors of cyclin-dependent kinases, compositions and uses related thereto” (GPC Biotech AG, priority 2001, dated 2009).

Columns and labels:
arrested HCT-116 cells = test: Arrested cell assay, arrested HCT-116 tumor cells; format: cell-based; settings: Homo sapiens, serum-starved arrested cells, 72 hours, read-out: Arrested cell assay HCT IC50
Protocol: (§1) Cyclin-dependent kinase (Cdk) activity is required to promote the progression of cells through distinct phases of the cell division cycle. The proliferation of normal, non-transformed, cells in culture requires the presence of growth factors, the removal of which, through serum deprivation, leads to a loss of Cdk activity and consequent exit from the cell cycle as cells enter the quiescent phase, G0.
HCT-116 cells were plated in triplicate for each compound concentration to be tested in RPMI 1640 media containing 10% fetal calf serum at a density of either 200 or 2,000 cells per well in 24 well dishes, and incubated overnight at 37° C., 5% CO2. The media from the plate containing 2,000 cells per well was removed, cells were washed once with serum free media and 1 ml of serum free media was placed on cells. The plates containing cells both in the presence and absence of serum were incubated for 6 additional days.
(§2) The cells are incubated in the presence of the compounds for 72 hours (3 days) at 37° C. […] Cycling and arrested HCT-116 cells as well as cycling IMR90 cells were exposed to a panel of 6 doses ranging from 5 to 250 nM. For arrested normal cells, the range of doses was increased to 50 nM to 25 μM, to compensate for the expected decrease in activity.
(§3) The effect of 72 hours of compound exposure on cellular viability was assessed in the Calcein AM assay. Calcein AM is a fluorescent substrate of intracellular esterases that are only active in viable cells. Cleavage of the substrate thus provides a measure of viability, which is proportional to cell number.
(§4) A Calcein AM stock solution was prepared by dissolving a 50 μg aliquot (Molecular Probes catalogue # C3100) in 50 μl DMSO. The tube was incubated at room temperature for approximately 10 minutes to ensure that the Calcein had dissolved completely. The calcein was diluted into 10 ml PBS to prepare the final solution, which was protected from light.
(§5) The media was aspirated off the cells, which were then washed twice with 1 ml PBS to remove the PBS completely from cells by aspiration. 0.5 ml of the Calcein/PBS solution was transferred by pipette into each well. The plates were incubated at 37° C. for 75 minutes (protected from light) and read on a fluorescent plate reader (excitation 485/20 and emission 530/25).

HCT-116 cells [1] = test: BrdU incorporation assay; format: cell-based; settings: Homo sapiens, read-out: Brd U, concentration that inhibits BrdU incorporation by 50%
Protocol: This method measured the percentage of cells that incorporated the nucleotide analog, BrdU, into newly synthesized DNA as cells progressed through the S phase of the cell cycle. The inhibition of BrdU incorporation was used as a measure of a Cdk inhibitor's effect on S phase progression and DNA replication.
3 sets of HCT-116 cells (100,000 cells/set) were plated in T25 flasks and incubated with a test compound as above. Analysis was done at 24, 48, and 72 hours. BrdU was added to each T-25 flask from a stock of 10 mg/ml to a final concentration of 10 μM and the cells were incubated for an additional 16-18 hours at 37° C. The cells were then prepared for flow cytometric analysis according to manufacturer's protocol (BrdU Flow kit, BD-Pharmingen catalogue #2354KK) as follows:
Cells were harvested (adherent and floating) from the T25 flasks directly into Falcon 12×75 flow cytometric tubes as above followed by fixation and permeabilization with the addition of 100 μl of Cytofix/Cytoperm buffer (30 minutes, room temperature). The cells were then washed with 1 ml of Perm Wash buffer and the cell pellets were resuspended in 100 μl Cytoperm Plus buffer and incubated on ice for 10 minutes. The cells were then washed again with 1 ml of Perm Wash buffer and the fixation was repeated in 100 μl of Cytofix/Cyto Perm buffer for 10 minutes at room temperature. The cells were then washed with 1 ml of Perm Wash buffer. The cells were next treated for one hour at 37° C. with 100 μl DNase to expose incorporated BrdU followed by another wash step with 1 ml of Perm Wash buffer. […] Cells were protected from light and incubated at room temperature for 20-30 minutes. Following the incubation, the cells were washed with 1 ml of Perm Wash buffer, resuspended in 300 μl of 2% FBS in PBS, and analyzed on the flow cytometer. Results are presented in Table 2 as the concentration of compound (μM) that inhibits of BrdU incorporation by 50%.

HCT-116 cells [2] = test: Calcein AM viability assay, HCT-116; format: cell-based; settings: Homo sapiens
Protocol: The potency of Cdk inhibitors, as measured by loss of cellular viability, was determined with the Calcein AM assay (Molecular Probes). Calcein AM is a substrate of intracellular esterases, which is cleaved only in viable cells to generate a fluorescent product that can be quantified with a fluorescent plate reader. The fluorescent signal is proportional to the number of viable cells, and thus loss of signal in response to the exposure of cells to Cdk inhibitors correlates with a loss of viability. This assay can distinguish cell cycle arrest, in which cells may still by viable, from loss of viability and is thus well suited for the evaluation of Cdk inhibitors. A compound that is a potent cytotoxic, may cause significant loss of cell viability in such assay.
Cellular IC50's were determined in the human colorectal carcinoma cell line, HCT-116, and the normal human fibroblast, IMR90. Protein adjusted IC50's were also determined in HCT-116.
HCT-116 or IMR90 cells were recovered from sub-confluent plates by trypsinization and 1,000 or 4,000 cells, respectively, were plated in 24-well dishes and incubated overnight at 37° C., 5% CO2. HCT-116 cells were cultured in RPMI-1640, 10% FCS, and IMR90 cells were cultured in Minimum Essential Medium-alpha, 10% FCS. After overnight incubation to allow adherence, the media was aspirated from each well and replaced with media containing a test compound at a concentration from 0 to 250 nM, spanning a total of 7 doses. The plates were returned to the incubator and cultured for an additional 72 hours (3 days). […] After 72-hours incubation with the test compound, the cells were washed twice with 1×PBS, taking special care to remove all residual buffer.
A 5 μM Calcein AM solution was prepared by dissolving a […] aliquot of Calcein (Molecular Probes catalog # C3100) in 50 μl DMSO. After the Calcein had completely dissolved (10 minutes at room temperature), it was diluted into 10 ml PBS. Calcein/PBS (0.5 ml) was added to each well. The plates were incubated for 75 minutes at 37° C. (protected from light) and the fluorescent signal was read on a fluorescent plate reader (excitation 485/20 and emission 530/25).

arrested IMR90 cells = test: Arrested cell assay, arrested IMR90 normal cells; format: cell-based; settings: Homo sapiens, IMR-90; serum-starved arrested cells, 72 hours; read-out: Arrested cell assay IMR90 IC50
Protocol: as §1
IMR90 cells were plated in triplicate for each compound concentration to be tested in MEM-A media containing 10% fetal calf serum at a density of either 2,000 or 20,000 cells per well in 24-well dishes and incubated overnight at 37° C., 5% CO2. The media was removed from the 20,000 cell-per-well dish, cells were washed once with serum-free media, and serum-free media was placed on cells. The plates containing cells both in the presence and absence of serum were incubated for 3 additional days.
as §2, §3, §4, §5

HIV-1 ROJO = test: Antiviral activity in PBMCs infected with HIV-1 ROJO (reverse transcriptase); format: cell-based; settings: for IC50: Human immunodeficiency virus 1, PBMC, 168 h, read-out: IC50: 50% inhibition of virus replication measured by reverse transcriptase levels in the supernatant, HIV-1 ROJO, 7 days post infection
Protocol: (§6) The activity of the certain compounds of the invention was evaluated in peripheral blood mononuclear cells (PBMCs) infected with the low passage, clinical isolate HIV-1 ROJO to generate a measure of the efficacy of these compounds in acutely infected cells. The use of these normal human cells allows an estimate of the therapeutic index of these compounds to be made. Fresh PBMCs from two donors were pooled and stimulated with PHA-P for 48-72 hours. The cells were then cultured in the presence of IL-2 to maintain the cell division initiated by the mitogenic signal. The virus was added at a multiplicity of infection of 0.1. The cells were cultured for 7 days post infection prior to the evaluation of efficacy. Viral replication was measured by the level of reverse transcriptase activity in the supernatant and cytotoxicity was measured with the MTS assay.

Cdc2/cyclin B = target: T1, Cdc2/cyclin B (Homo sapiens, UniProt P06493); test: Biochemical kinase assay Cdc2/cyclin B; settings: Table 6
T1 construct: purchased
T1 sequence (P06493 whole entry, species assumed): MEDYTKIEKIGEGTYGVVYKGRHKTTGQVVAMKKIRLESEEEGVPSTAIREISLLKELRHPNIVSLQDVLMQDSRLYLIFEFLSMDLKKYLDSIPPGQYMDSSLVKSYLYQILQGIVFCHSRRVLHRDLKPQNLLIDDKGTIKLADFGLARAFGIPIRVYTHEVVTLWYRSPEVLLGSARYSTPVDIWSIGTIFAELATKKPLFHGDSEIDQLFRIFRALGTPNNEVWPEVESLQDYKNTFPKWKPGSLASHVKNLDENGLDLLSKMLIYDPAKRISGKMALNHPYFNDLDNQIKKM
T1 sequence (P14635 whole entry partner, species assumed): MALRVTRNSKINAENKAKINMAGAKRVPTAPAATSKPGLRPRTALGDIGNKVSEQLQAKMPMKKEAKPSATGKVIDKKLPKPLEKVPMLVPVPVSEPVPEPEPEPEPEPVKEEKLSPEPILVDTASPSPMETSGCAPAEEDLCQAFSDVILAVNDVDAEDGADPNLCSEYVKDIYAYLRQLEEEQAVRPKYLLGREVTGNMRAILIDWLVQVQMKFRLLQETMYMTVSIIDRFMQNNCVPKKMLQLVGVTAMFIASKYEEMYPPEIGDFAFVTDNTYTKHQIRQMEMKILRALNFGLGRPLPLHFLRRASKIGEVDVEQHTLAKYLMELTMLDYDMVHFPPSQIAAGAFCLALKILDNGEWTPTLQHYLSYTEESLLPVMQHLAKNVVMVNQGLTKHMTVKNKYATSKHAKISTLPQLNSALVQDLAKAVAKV
Summary of the method: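 Radiometric TCA-precipitation assay measuring [γ-32P]ATP incorporation into Histone H1 (20 μg); 50 μM ATP, 10% DMSO, Tris pH 7.5 with MgCl2 and DTT. Compounds at 1 nM to 10 μM; reaction 20 min at 30 °C, stopped with EDTA/ATP. Activity relative to DMSO control after subtracting 50 mM EDTA background.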

[3] = Cytotoxicity in PBMCs (MTS assay); format: cell-based, human; settings: human
Protocol: as §6

Cdk2/cyclin E = target: T2, Cdk2/cyclin E (Homo sapiens, UniProt P24941); test: Biochemical kinase assay Cdk2/cyclin E; settings: Table 6
T2 construct: made in house; host or cells: Sf9 insect cells
Summary of the method: (§7)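 Sf9-expressed Cdk/cyclin heterodimers phosphorylate GST-Rb (residues 379–928, 40 μg) with 50 μM ATP plus [γ-33P]ATP, pH 7.5, 10% DMSO, 15 min at 30 °C. Compounds 1 nM–10 μM. 33P captured on glutathione-sepharose and scintillation-counted; activity relative to DMSO control after EDTA-background subtraction.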

Cdk4/cyclin D1 = target: T3, Cdk4/cyclin D1 (Homo sapiens, UniProt P11802); test: Biochemical kinase assay Cdk4/cyclin D1; settings: Table 6
T3 construct: made in house; host or cells: Sf9 insect cells
T3 sequence (P11802 whole entry, species assumed): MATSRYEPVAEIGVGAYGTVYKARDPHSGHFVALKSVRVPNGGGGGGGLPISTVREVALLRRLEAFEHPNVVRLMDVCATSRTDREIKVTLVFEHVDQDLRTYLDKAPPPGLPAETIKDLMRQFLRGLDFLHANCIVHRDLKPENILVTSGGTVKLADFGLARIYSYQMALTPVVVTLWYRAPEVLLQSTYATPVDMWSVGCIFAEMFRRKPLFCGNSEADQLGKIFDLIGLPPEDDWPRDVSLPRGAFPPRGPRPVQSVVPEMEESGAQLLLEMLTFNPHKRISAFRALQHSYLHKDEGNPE
T3 sequence (P24385 whole entry partner, species assumed): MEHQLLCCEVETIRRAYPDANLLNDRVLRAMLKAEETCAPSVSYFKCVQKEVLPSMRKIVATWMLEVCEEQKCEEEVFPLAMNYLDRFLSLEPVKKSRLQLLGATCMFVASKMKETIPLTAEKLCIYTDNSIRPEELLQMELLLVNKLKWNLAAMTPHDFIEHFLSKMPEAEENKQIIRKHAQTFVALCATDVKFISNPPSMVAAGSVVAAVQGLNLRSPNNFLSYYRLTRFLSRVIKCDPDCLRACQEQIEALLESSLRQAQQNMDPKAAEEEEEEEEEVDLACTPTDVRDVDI
Summary of the method: as §7

[4] = HCT-116, 72 h, Calcein AM, 72 hours, read-out: HCT-116 IC50 Viability
[5] = HCT-116, plus 1 mg/ml alpha acidic glycoprotein and 45 mg/ml human serum albumin, read-out: HCT-116 IC50 Protein adjusted
[6] = HCT-116, non-protein adjusted, Table 6, read-out: HCT-116 viability IC50

SMILES | IC50 (arrested HCT-116 cells) | IC50 (HCT-116 cells [1]; HCT-116, 24 h) | IC50 (HCT-116 cells [1]; HCT-116, 48 h) | IC50 (HCT-116 cells [2]; [4]) | IC50 (arrested IMR90 cells) | also measured
CC(C)N1CCN(Cc2cc(-c3[nH]nc4c3C(=O)c3c(NC(=O)NN5CCOCC5)cccc3-4)ccc2O)CC1 [K] | < 0.01 µM | < 0.1 µM | < 0.1 µM | < 0.1 µM | > 1 µM | 
CN1CCN(NC(=O)Nc2cccc3c2C(=O)c2c-3n[nH]c2-c2ccc(OCCN3CC[C@H](O)C3)cc2)CC1 [O] | < 0.1 µM | < 0.1 µM |  |  | > 0.1 µM | IC50 (HCT-116 cells [2]; [5]): < 1 µM
CC(C)c1nn(-c2c(Cl)cc(Cl)cc2Cl)c2nc(Cc3ccc(OCCO)cc3)[nH]c(=O)c12 [Compound A61] |  |  |  |  |  | TI: TC50/IC50 (HIV-1 ROJO): >10; IC50 (HIV-1 ROJO): < 0.01 µM; IC50 (Cdc2/cyclin B): < 0.1 µM; CC50 at 7 days [3]: < 0.1 µM; IC50 (Cdk2/cyclin E): < 0.1 µM; IC50 (Cdk4/cyclin D1): < 1 µM
O=C(Nc1cccc2c1C(=O)c1c-2n[nH]c1-c1ccc(OCCN2CCCC2)cc1)NN1CCOCC1 [Compound I] | < 0.1 µM | < 0.01 µM |  | < 0.1 µM | > 1 µM | 
CN1CCN(NC(=O)Nc2cccc3c2C(=O)c2c-3n[nH]c2-c2ccc(OCCN3CCC[C@H]3CO)cc2)CC1 [Compound M] | < 0.1 µM |  | < 0.1 µM | < 0.1 µM | > 1 µM | 
CN1CCN(NC(=O)Nc2cccc3c2C(=O)c2c-3n[nH]c2-c2ccc(OCCN3CCOCC3)cc2)CC1 [Q] | < 0.1 µM |  | < 0.1 µM |  | > 0.1 µM | 
CN1CCN(NC(=O)Nc2cccc3c2C(=O)c2c-3n[nH]c2-c2ccc(OCCN3CCCC3)cc2)CC1 [F] |  |  |  |  | > 1 µM | IC50 (HCT-116 cells [1]; HCT-116, 72 h): < 1 µM; IC50 (HCT-116 cells [2]; [5]): < 0.1 µM
CC(C)c1nn(-c2c(Cl)cc(Cl)cc2Cl)c2nc(Cc3ccc(NS(=O)(=O)CCCN4CCOCC4)cc3)[nH]c(=O)c12 [D] | < 0.01 µM |  | < 0.1 µM |  | > 1 µM | IC50 (HCT-116 cells [1]; HCT-116, 72 h): < 0.1 µM
O=C(Nc1cccc2c1C(=O)c1c-2n[nH]c1-c1ccc(OCCN(CCO)CCO)cc1)NN1CCOCC1 [H] | < 0.1 µM |  | < 1 µM |  | > 1 µM | IC50 (HCT-116 cells [2]; [5]): < 1 µM
CCCN(CCOc1ccc(-c2[nH]nc3c2C(=O)c2c(NC(=O)NN4CCOCC4)cccc2-3)cc1)CC1CC1 [G] | < 0.1 µM | < 0.01 µM |  | < 0.1 µM | > 0.1 µM | 
CC(C)c1nn(-c2c(Cl)cc(Cl)cc2Cl)c2nc(Cc3ccc(CNC(CO)CO)n3C)[nH]c(=O)c12.Cl [Compound C4] |  |  |  |  |  | TI: TC50/IC50 (HIV-1 ROJO): >1; IC50 (HIV-1 ROJO): < 0.1 µM; IC50 (HCT-116 cells [2]; [6]): < 0.1 µM; CC50 at 7 days [3]: < 0.1 µM; IC50 (Cdk2/cyclin E): < 0.01 µM
Cc1cc(OCCN2CCCC2)ccc1-c1[nH]nc2c1C(=O)c1c(NC(=O)NN3CCN(C)CC3)cccc1-2 [L] |  | < 0.1 µM |  | < 0.1 µM |  | 
CC(C)c1nn(-c2c(Cl)cccc2Cl)c2nc(Cc3ccc(CN4CCCC4)c(O)c3)[nH]c(=O)c12.Cl [Compound C3] |  |  |  |  |  | TI: TC50/IC50 (HIV-1 ROJO): >10; IC50 (HIV-1 ROJO): < 0.01 µM; IC50 (HCT-116 cells [2]; [6]): < 0.1 µM; CC50 at 7 days [3]: < 0.1 µM; IC50 (Cdk2/cyclin E): < 0.1 µM
